Laboratory results from patent US5326788A, “Biological fluid purification system” (priority 1992, dated 1994).

Legend:
HIV [1] = assay: Infectivity (ability to replicate in culture) of HIV derived from H9 cell cultures; type: cell-based, Human Immunodeficiency Virus (HIV)
Protocol: FIG. 2 is a graph showing the effect of hypericin and pseudohypericin on the infectivity of HIV cultured from an AIDS patient.
(§1) In FIG. 1, open squares represent hypericin-treated and pluses represent pseudohypericin treated HIV. […] Inactivation of the reverse transcriptase activity of the virions was not a result of a direct inhibition of reverse transcriptase activity per se, as incubation of either compound directly with purified reverse transcriptase from either avian myeloblastosis virus or murine leukemia virus had no effect on enzyme activity. Furthermore, aliquots of HIV derived from these H9 cell cultures lost the ability to replicate in culture when exposed to as little as 0.77 micrograms/ml of hypericin.

HIV [2] = assay: Inactivation of HIV from blood of sero-positive patient, reverse transcriptase activity after culture with H9 cells; type: cell-based, Human Immunodeficiency Virus (HIV)
Protocol: In order to show the effectiveness of the compounds of the present invention in the inactivation of HIV, blood was obtained from an HIV sero-positive patient and treated with hypericin and pseudohypericin at various concentrations for 1 hour at 37° C. and incubated with uninfected H9 cells in culture. Thereafter, reverse transcriptase enzymatic activity was determined as disclosed in U.S. patent application Ser. Nos. 084,008 and 172,064 filed Aug. 10, 1987 and Mar. 23, 1988, respectively.
as §1

Radiation Leukemia Virus = assay: Inhibition of virus budding from infected AQR cells, reverse transcriptase assay; type: cell-based, Radiation Leukemia Virus in AQR (murine leukemia) cells; conditions: 1 hour incubation, supernatant after 24 hours; read-out: concentration completely inhibiting virus budding
Protocol: AQR (murine leukemia) cells producing Radiation Leukemia Virus (prepared as described in Meruelo, D., J. Exp. Med. 149: 898-909, 1979; and Bach, R. G. et al., J. Exp. Med. 160: 270-285, 1984) were incubated for 1 hour with various concentrations of synthetic hypericin (micrograms/ml shown in FIG. 3). The cells were then washed four times with phosphate buffer saline and incubated in fresh culture medium for 24 or 48 hours. Supernatants were then collected, pelleted (at 1000×g) for 15 minutes to remove whole cells and then repelleted at 100,000×g for 1 hour to collect virus particles. The second pellet was used for a reverse transcriptase assay, conducted as described in U.S. application Ser. No. 084,008 (Aug. 10, 1987) and 172,064 (Mar. 23, 1988).
The results of the reverse transcriptase assay are plotted in FIG. 3. […] Thus, the minimum incubation period that would destroy the ability of HIV-infected cells to participate in propagation of the HIV infection is likely to be much smaller than the 24 hours employed as the minimum waiting period in this assay.

HIV [3] = assay: Incubation time of free HIV virus with hypericin needed to inhibit infectivity; type: cell-based, Human Immunodeficiency Virus (HIV)
[4] = Toxicity of hypericin administered to mice; type: in vivo
Protocol: In general, up to 100 mg and preferably between 1 mg and about 10 mg of the antiviral compounds may be employed to completely eliminate the infectivity properties of human retroviruses such as HIV in one unit of whole blood. Intravenous transfusion or administration of blood containing this level of hypericin for example should pose no serious toxicity or tolerance threat to human recipients of such transfused blood. […] This correlates with a dose of approximately 25 mg i.v. in man, or twenty times the dose that would be received from a transfusion of 1 unit of whole blood containing 2.5 micrograms/ml hypericin. In addition, i.e. administration of 1.2 mg of hypericin in phosphate buffered saline (PBS) containing 10% ethanol to a mouse was not lethal. (Naturally, it is preferred to use the minimum amount of the antiviral compounds that is effective to terminate the infectivity of the target virus in a given biological fluid. The minimum effective amount required for abolishing infectivity of a particular viral species suspected to be present in a biological fluid can be easily determined through the exercise of routine experimentation.)

[5] = target: purified reverse transcriptase from murine leukemia virus (Moloney murine leukemia virus isolate Shinnick, UniProt P03355); assay: Direct incubation with purified reverse transcriptase; type: biochemical
Protocol: as §1

[6] = test system: purified reverse transcriptase from avian myeloblastosis virus; assay: as above; type: biochemical
Protocol: as §1

HIV-1 = assay: Syncytia assay, H9 cells infected with IIIb isolate of HIV co-cultured with Supt-1 cells; type: cell-based; conditions: 24 hours
Protocol: In order to assess the effects of Hy and Ps on the ability of HIV to form syncytia, the following experiments were performed. For the analysis of HIV-1, an entry syncytia assay was performed by co-culturing H9 cells (described in Popovic, M. et al. Science 224: 497-500, 1984) infected with the IIIb isolate of HIV with uninfected Supt-1 cells (Walker, B. D. et al. Proc. Nat. Acad. Sci. (USA) 84: 8120-8124, 1987) as the target cell. HIV-2 was tested using HUT78 cells (obtained from the National Institute of Health by reference to Depository Catalog, Reagent Program, Bethesda, Md.) infected with the ROD-2 isolate of HIV-2 co-cultured with uninfected H9 target cells. The infected cells were plated in 96 well plates (10^4 cells per well in RPM1 1640 medium with 10% fetal calf serum) and incubated with or without dilutions of Ps or Hy for 30 minutes at 37° C. 1×10^5 target cells were then added per well and the number of syncytia were quantitatively and qualitatively determined after 24 hours.

## Cc1cc(O)c2c(=O)c3c(O)cc(O)c4c5c(O)cc(O)c6c(=O)c7c(O)cc(C)c8c1c2c(c34)c(c78)c65 [hypericin]
HIV [1]
  concentration abolishing infectivity of HIV (loss of ability to replicate in culture): 0.77 micrograms/ml
HIV [1]; Human immunodeficiency virus 1, read-out: concentration abolishing infectivity of HIV (loss of ability to replicate in culture)
  minimal effective concentration: 0.77 µg/mL
HIV [2]; 1 hour at 37° C., H9 cells
  concentration giving complete inactivation of HIV (no reverse transcriptase detected): 2.5 micrograms/ml
HIV [2]; Human immunodeficiency virus 1, H9, 1 h, read-out: concentration giving complete inactivation of HIV (no reverse transcriptase detected), 1 hour at 37° C., H9 cells
  IC100: > 2.5 µg/mL
Radiation Leukemia Virus
  IC100: 10 µg/mL
HIV [3]; 10 and 5 minutes incubation
  inhibition of virus infectivity: complete
HIV [3]; only the time to add compound and centrifuge
  inhibition of virus infectivity: significant inhibition
[4]; i.v., extrapolated from 100 micrograms per mouse
  corresponding dose in man: approximately 25 mg
[4]; mice, intravenous, 100 micrograms per mouse
  toxic side effects: not exhibited any toxic side effects
[4]; mouse, 1.2 mg in PBS containing 10% ethanol
  lethality: not lethal
[5]
  effect on enzyme activity of purified reverse transcriptase: no effect
[6]
  effect on enzyme activity of purified reverse transcriptase: no effect
HIV-1; 7 nanograms
  syncytia score (number 0-4, size S/M/L): 4 L
HIV-1; 14 nanograms
  syncytia score (number 0-4, size S/M/L): 4 L
HIV-1; 28 nanograms
  syncytia score (number 0-4, size S/M/L): 3 L
HIV-1; 56 nanograms
  syncytia score (number 0-4, size S/M/L): 0
HIV-1; 112 nanograms
  syncytia score (number 0-4, size S/M/L): 0
HIV-1; 225 nanograms
  syncytia score (number 0-4, size S/M/L): 0
HIV-1; 450 nanograms
  syncytia score (number 0-4, size S/M/L): 0
HIV-1; 900 nanograms
  syncytia score (number 0-4, size S/M/L): 0
HIV-1; 1800 nanograms
  syncytia score (number 0-4, size S/M/L): 0
